Laboratory results: ChEMBL document CHEMBL1201862, “PubChem BioAssay data set” (2004)
Active and inactive are the calls of the source.

Legend:
Hexokinase-1 = Hexokinase-1 (Homo sapiens, UniProt P19367); experiment: hexokinase 1 activators, dose response, selectivity assay for HKDC1 activator project, biochemical (AID 504762); format: functional
Hexokinase HKDC1 = biological target: T1, Hexokinase HKDC1 (Homo sapiens, UniProt Q2TB90); experiment: HKDC1 hexokinase activators, dose response, biochemical, W721R variant (AID 504730); format: functional
T1 sequence (Q2TB90 whole entry): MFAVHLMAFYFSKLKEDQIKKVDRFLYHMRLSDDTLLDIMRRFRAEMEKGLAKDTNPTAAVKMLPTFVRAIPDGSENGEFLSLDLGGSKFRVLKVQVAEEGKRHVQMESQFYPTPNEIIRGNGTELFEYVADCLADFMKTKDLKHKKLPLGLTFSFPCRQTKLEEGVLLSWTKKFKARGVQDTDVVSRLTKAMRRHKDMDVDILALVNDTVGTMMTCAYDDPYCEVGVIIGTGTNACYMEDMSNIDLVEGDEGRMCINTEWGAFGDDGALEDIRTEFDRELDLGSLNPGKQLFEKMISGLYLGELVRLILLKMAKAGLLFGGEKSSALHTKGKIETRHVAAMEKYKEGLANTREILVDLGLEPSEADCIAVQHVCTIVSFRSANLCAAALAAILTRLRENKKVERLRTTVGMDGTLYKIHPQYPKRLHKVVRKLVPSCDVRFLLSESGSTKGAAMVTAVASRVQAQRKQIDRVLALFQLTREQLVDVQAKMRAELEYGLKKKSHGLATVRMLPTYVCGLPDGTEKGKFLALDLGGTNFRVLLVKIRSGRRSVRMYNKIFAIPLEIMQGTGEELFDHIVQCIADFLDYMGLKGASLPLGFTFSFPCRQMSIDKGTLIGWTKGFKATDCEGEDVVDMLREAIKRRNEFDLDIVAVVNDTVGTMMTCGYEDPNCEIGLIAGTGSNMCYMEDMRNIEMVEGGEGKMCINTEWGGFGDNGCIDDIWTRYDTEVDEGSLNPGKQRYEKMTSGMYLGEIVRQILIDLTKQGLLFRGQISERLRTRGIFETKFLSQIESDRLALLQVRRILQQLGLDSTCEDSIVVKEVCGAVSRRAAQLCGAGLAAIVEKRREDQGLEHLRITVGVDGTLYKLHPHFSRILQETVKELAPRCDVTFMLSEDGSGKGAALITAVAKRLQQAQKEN

[1] = biological target: Neuropeptide Y receptor type 1 (Homo sapiens, UniProt P25929); format: functional;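 also: HEK293 cells with a CNG channel challenged with NPY then isoproterenol; potency as antagonist that reverses NPY suppression of cAMP signal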
Protein RecA = biological target: T2, Protein RecA (Mycobacterium tuberculosis, UniProt P9WHJ3); experiment: Fluorescence Cell-Free Homogeneous Dose Retest to Identify Inhibitors of RecA-Intein Splicing Activity. [Related pubchem assays (depositor defined):AID2097, AID2223, AID489010, AID492950]; format: functional
T2 sequence (P9WHJ3 whole entry): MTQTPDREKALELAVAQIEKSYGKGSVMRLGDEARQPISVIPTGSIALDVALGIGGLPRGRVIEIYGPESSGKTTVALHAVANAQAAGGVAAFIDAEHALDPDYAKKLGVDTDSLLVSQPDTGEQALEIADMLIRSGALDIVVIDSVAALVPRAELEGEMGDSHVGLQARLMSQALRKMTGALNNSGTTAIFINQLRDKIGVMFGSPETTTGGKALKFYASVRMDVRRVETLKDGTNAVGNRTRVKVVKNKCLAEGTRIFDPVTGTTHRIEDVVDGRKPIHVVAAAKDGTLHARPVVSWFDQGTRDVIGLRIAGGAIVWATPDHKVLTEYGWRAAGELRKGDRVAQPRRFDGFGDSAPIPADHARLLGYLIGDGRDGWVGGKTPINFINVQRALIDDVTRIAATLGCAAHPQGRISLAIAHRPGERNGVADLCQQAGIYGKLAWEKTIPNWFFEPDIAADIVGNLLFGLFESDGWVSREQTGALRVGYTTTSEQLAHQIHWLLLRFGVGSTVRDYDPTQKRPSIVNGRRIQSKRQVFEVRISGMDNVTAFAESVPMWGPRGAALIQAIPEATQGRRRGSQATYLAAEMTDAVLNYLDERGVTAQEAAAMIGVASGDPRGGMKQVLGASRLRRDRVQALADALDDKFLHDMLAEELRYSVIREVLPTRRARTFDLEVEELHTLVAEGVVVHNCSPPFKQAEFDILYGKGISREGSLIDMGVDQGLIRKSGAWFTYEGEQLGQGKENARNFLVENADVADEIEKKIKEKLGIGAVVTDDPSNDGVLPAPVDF

[2] = biological target: T3, Replicative DNA helicase DnaB (Mycobacterium tuberculosis, UniProt P9WMR3); experiment: DnaB intein splicing inhibitors, dose response, biochemical, cell-free fluorescence (AID 449749); format: functional
T3 sequence (P9WMR3 whole entry): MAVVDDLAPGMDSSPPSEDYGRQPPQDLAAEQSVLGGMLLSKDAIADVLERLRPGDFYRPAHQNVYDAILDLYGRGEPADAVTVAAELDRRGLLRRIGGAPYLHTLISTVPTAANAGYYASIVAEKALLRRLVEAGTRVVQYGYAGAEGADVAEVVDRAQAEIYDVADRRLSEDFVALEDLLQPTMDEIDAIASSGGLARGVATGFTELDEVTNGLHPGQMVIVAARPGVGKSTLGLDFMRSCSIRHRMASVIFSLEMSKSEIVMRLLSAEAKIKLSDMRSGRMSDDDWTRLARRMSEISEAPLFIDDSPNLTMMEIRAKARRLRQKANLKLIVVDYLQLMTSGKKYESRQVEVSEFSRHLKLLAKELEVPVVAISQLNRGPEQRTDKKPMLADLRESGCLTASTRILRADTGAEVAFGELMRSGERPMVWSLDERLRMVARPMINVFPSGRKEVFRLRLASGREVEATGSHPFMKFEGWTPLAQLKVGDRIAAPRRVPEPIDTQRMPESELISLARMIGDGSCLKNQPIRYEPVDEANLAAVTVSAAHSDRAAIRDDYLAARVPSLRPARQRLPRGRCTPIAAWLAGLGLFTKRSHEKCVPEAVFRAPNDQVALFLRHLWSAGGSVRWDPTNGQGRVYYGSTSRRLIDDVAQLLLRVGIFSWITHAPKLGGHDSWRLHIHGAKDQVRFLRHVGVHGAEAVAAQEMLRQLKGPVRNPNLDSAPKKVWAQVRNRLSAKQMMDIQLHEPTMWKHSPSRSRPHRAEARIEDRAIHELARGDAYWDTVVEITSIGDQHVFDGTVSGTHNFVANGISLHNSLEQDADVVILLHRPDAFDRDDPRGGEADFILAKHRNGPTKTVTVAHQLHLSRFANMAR

[3] = biological target: Neuropeptide Y receptor type 2 (Homo sapiens, UniProt P49146); format: functional, cell-based;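 also: HEK293 cells expressing the receptor and a CNG channel; stimulus was NPY near EC95 followed by isoproterenol to raise cAMP; antagonist potency measured as restoring cAMP signal that NPY suppresses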
[4] = Intein inhibitors as potential Tuberculosis drugs, a cytotoxicity screen. [Related pubchem assays (depositor defined):AID2221, AID2223, AID434968, AID435010, AID449749, AID449750, AID489010]; format: functional
INS1 = experiment: beta cell apoptosis inhibitors, cytokine rescue, dose response, luminescence, retest (AID 449756); format: functional, cell-based; conditions: Rattus norvegicus;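 also: cell death triggered by IL-1 beta plus TNF-alpha plus IFN-gamma mixture; protective hits raise ATP signal compared with cytokine alone wells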
Bcl-2-related protein A1 = biological target: T4, Bcl-2-related protein A1 (Mus musculus, UniProt Q07440); format: functional;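 also: confirmatory dose–response counterscreen on Bfl-1, used to check hits from a UBC13 polyubiquitin inhibitor campaign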
T4 sequence (Q07440 whole entry): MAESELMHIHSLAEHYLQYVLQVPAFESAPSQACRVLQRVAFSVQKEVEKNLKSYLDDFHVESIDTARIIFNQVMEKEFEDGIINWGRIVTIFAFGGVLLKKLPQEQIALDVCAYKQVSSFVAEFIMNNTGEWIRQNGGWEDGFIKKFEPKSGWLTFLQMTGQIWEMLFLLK

[5] = biological target: Lysine-specific demethylase 4C (Homo sapiens, UniProt Q9H3R0); experiment: GASC-1 (JMJD2C) histone demethylase inhibitors, dose response, biochemical, DELFIA europium, cherry-picked samples (AID 488835); format: functional
[6] = biological target: T5, Ubiquitin-conjugating enzyme E2 N (Homo sapiens, UniProt P61088); format: functional
T5 sequence (P61088 whole entry): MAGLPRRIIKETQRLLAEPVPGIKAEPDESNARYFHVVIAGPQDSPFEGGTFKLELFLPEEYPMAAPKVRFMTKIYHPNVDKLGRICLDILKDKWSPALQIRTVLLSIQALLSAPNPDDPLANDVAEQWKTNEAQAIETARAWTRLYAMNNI

[7] = human group III sPLA2 inhibitors, dose response, biochemical, QFRET, IC50 (AID 743457);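 also: green fluorescence rise as the enzyme cleaves BODIPY PC-A2 in liposomes; potency for inhibition of the enzyme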
[8] = biological target: T5, Ubiquitin-conjugating enzyme E2 N; format: functional; remark: listed apart in the source
Nonstructural protein 1 = Nonstructural protein 1 (Influenza A virus, UniProt Q194T2); format: functional, Influenza A virus (A/California/07/2009(H1N1))
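For CC50 in this document: cells exposed to compound for 72 hours before luminescence readout.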

Nonstructural protein 1, sequence (Q194T2 whole entry): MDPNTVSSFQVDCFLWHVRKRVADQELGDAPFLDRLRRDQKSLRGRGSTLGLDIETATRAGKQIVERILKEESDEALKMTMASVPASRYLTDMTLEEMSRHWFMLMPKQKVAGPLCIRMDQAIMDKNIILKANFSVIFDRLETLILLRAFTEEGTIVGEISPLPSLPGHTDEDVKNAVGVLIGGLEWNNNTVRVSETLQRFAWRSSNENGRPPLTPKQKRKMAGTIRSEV
Neuropeptide Y receptor type 2, sequence (P49146 whole entry): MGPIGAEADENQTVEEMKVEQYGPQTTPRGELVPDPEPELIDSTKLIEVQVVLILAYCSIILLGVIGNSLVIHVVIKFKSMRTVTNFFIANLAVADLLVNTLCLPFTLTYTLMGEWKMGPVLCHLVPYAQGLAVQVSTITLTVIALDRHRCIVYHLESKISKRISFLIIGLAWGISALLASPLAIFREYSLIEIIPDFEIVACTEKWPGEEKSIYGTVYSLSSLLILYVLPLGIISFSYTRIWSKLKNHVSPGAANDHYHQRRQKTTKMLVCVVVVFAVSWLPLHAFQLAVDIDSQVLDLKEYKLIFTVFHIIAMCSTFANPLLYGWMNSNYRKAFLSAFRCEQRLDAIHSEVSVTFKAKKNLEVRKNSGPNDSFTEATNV
Neuropeptide Y receptor type 1, sequence (P25929 whole entry): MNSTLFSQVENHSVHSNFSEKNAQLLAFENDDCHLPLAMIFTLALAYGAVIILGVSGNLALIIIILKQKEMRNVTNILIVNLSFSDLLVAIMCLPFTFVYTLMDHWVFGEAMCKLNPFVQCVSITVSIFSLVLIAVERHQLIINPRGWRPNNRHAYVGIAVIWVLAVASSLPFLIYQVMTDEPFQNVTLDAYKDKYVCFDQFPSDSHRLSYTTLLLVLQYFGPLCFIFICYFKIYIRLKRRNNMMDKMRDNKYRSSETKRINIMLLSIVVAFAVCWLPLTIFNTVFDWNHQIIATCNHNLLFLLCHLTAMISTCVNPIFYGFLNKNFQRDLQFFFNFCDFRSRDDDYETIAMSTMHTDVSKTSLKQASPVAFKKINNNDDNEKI
Hexokinase-1, sequence (P19367 whole entry): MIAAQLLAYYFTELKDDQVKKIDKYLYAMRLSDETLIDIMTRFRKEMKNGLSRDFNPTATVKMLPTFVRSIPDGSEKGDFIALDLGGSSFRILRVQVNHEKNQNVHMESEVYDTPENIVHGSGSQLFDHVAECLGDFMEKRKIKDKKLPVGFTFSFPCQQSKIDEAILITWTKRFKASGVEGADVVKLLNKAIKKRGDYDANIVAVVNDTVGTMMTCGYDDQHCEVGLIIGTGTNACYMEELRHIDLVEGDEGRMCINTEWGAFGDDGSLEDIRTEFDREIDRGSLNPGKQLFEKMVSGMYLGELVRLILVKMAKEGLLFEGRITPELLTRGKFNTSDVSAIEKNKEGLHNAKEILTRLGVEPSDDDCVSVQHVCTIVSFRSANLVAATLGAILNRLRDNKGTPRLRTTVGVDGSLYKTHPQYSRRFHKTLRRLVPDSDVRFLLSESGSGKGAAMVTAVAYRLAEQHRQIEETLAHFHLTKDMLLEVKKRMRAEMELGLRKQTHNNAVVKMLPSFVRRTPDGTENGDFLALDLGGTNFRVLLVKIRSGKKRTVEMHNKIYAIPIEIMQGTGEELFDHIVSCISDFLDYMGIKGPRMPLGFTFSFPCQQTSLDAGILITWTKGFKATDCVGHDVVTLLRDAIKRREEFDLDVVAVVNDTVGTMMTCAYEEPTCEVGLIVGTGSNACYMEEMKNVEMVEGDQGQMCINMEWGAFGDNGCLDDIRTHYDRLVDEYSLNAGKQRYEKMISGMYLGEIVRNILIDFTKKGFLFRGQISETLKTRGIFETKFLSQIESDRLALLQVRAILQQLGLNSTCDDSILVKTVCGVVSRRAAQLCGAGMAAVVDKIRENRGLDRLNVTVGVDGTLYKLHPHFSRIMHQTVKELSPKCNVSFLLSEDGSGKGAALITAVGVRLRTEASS
Lysine-specific demethylase 4C, sequence (Q9H3R0 whole entry): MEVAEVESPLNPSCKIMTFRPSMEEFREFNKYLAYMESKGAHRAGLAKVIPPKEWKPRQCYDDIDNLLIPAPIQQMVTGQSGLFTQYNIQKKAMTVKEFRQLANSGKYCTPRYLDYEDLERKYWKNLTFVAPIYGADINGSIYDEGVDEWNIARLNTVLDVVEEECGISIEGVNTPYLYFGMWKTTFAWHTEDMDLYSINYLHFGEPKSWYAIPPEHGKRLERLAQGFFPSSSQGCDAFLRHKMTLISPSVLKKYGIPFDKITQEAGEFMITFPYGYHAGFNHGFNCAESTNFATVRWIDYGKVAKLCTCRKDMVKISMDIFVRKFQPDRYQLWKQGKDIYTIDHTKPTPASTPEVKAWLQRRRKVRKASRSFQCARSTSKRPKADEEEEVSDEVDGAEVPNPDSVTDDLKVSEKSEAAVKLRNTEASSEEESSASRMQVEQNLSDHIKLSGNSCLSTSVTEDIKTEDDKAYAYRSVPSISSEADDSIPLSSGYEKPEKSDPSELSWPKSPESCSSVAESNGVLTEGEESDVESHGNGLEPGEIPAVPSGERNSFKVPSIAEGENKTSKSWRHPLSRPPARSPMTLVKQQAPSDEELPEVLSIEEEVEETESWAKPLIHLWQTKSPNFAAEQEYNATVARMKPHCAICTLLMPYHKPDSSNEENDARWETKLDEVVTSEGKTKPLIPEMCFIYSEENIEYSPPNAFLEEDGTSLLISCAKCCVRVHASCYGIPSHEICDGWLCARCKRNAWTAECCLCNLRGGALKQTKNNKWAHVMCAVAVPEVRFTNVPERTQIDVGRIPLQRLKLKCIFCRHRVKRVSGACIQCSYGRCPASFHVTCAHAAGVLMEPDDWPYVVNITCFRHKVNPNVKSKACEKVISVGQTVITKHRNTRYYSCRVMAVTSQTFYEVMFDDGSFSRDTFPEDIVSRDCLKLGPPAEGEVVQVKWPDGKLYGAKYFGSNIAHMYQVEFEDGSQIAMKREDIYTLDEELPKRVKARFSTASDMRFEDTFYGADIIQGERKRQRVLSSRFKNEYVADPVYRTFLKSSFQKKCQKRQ

Cc1ccccc1NC1=NN=C(c2ccccc2F)CS1
inactive: EC50 (Hexokinase-1) 53.2 µM | EC50 (Hexokinase HKDC1) 27 µM

COC(=O)c1c(C)oc2ccc(N(C(=O)c3ccncc3)S(=O)(=O)c3ccc4ccccc4c3)cc12
active: IC50 [1] 4.84 µM | EC50 (Protein RecA) 4.08 µM | AC50 [2] 4.46 µM | IC50 [3] 7.94 µM | CC50 [4] 36.5 µM | AC50 (INS1) 12.9 µM

Cc1cccc(-n2cnc(C(=O)NN=C(S)Nc3ccccc3)c2)n1
inactive: IC50 (Bcl-2-related protein A1) > 20 µM | IC50 [7] > 122 µM
active: AC50 [5] 5.67 µM | IC50 [6] 14.8 µM | IC50 [8] 6.96 µM | IC50 (Nonstructural protein 1) 4.86 µM
